The subject of series [1] is iron-induced lipid peroxidation in rat brain homogenates. Nature of the series: Iron-induced lipid peroxidation in rat brain homogenates. Particulars: 10 mM; for Inhibition of LP(10 mM): mean percent inhibition (Table 3); for LP (%) (10 mM): relative percentage of inhibition (Table 1).
The subject of the next series is rat glioma C6 cells. Nature of the series: Cytotoxicity assay (XTT colorimetric), C6 cells. It counts as cell-based. Particulars: Rattus norvegicus, C6; 48 h of drug exposure. In general terms: Tetrazolium assays rely on reduction of a dye to a coloured formazan, in cell work by metabolically active cells.
Series [2] deals with transcriptional activity of hTERT. Nature of the series: SEAP reporter assay of hTERT expression, PhTERT-SEAP (H1299). It counts as cell-based, human. The method in brief: (§1)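 We treated G418-selected reporter cells with varying drug amounts for 24 h and measured SEAP in the heat-inactivated medium as the rate of 405 nm absorbance increase.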
Background: In a reporter assay the amount or activity of a reporter protein is the signal.

Series [3] in a line: MTT relative viability, PhTERT-SEAP (H1299) cells. Particulars: human.
Experimental: The tetrazolium reagent (MTT; 3-(4,5-di-methylthiazol)-2,5-diphenyl tetrazolium bromide, USB) was designed to yield a colored formazan upon metabolic reduction by viable cells. Approximately […] cells were plated onto each well of a 96-well plate and incubated in 5% CO2 at 37° C. for 24 h. To assess the in vitro cytotoxicity, each compound was dissolved in DMSO and prepared immediately before the experiments and was diluted into the complete medium before addition to cell cultures. Test compounds were then added to the culture medium for designated various concentrations. After 48 h, an amount of 25 μL of MTT was added to each well, and the samples were incubated at 37° C. for 4 h. A 100 μL solution of lysis buffer containing 20% SDS and 50% N,N-dimethylformamide was added to each well and incubated at 37° C. for another 16 h. The absorbency at 550 nm was measured using an ELISA reader.
Non small lung cancer cells H1299 (telomerase positive) were grown in RPMI 1640 media supplemented with 10% fetal bovine serum, 100 units/mL penicillin and 100 mg/mL streptomycin in a humidified atmosphere with 5% CO2 at 37° C. The hTERT immortalized hTERT-BJ1 (BD Biosciences Clontech)^39 were grown in DMEM media supplemented with 10% fetal calf serum, 100 units/mL penicillin and 100 mg/mL streptomycin, 1 mM sodium pyruvate, and 4 mM I-arginine in a humidified atmosphere with 5% CO2 at 37° C. Culture media were changed every 3 days. […] The stable clones derived from H1299 or hTERT-BJ1 were cultured using conditions that are similar to their parental cells.
Series [4] can be described thus: MTT relative viability, PhTERT-SEAP (hTERT-BJ1) cells. Particulars: human.
Series [5] deals with transcriptional activity of hTERT. Nature of the series: SEAP reporter assay of hTERT expression, PhTERT-SEAP (hTERT-BJ1). It counts as cell-based, human. In short, it runs like this:
as §1

For the next series, the system named is human hepatoma G2 cells. Nature of the series: Cytotoxicity assay (XTT colorimetric), Hep G2. It counts as cell-based. Particulars: Homo sapiens, HepG2; 48 h of drug exposure.
In series [6] the test system is hepatitis B virus transfected hepatoma cell lines, HepG 2.2.15 cells. Nature of the series: Cytotoxicity assay, 2.2.15 cells. It counts as cell-based, human. The note with it: Homo sapiens, HepG2.2.15; 48 h of drug exposure.
Setting [7] is: hTERT-BJ1 cells, stable PhTERT-SEAP reporter clone.
The mark [8] stands for this setting: Homo sapiens, hTERT-BJ1, read-out: Relative SEAP activity (%).

The structures appear in SMILES notation.

Consider 15 compounds from patent US20050009924A1 (priority 2003, published 2005).

Turning to `O=C(Oc1cccc2c1C(=O)c1cccc(OC(=O)c3ccc(Cl)cc3)c1C2=O)c1ccc(Cl)cc1`, in series [1], the “Inhibition of LP(10 mM)” value is recorded as 2 ± 0.2%. Besides, the values for the IC50 in the series on rat glioma C6 cells and in the series on human hepatoma G2 cells were 38.6 ± 3.5 µM and 48.1 ± 4.5 µM, respectively. Moreover, the activity at 1.9 µM was 106 ± 4.5% in series [2] (Homo sapiens, NCI-H1299, 1.9 μM, H1299, read-out: Relative SEAP activity (%)) and 136 ± 5.7% in series [5] (setting [8]). Also, the activity at 19 µM was 106 ± 4.9% in series [2] (Homo sapiens, NCI-H1299, 19 μM, H1299, read-out: Relative SEAP activity (%)) and 123 ± 6.2% in series [5] (setting [8]). For the same compound, the activity at 190 µM in series [2] (Homo sapiens, NCI-H1299, 190 μM, H1299, read-out: Relative SEAP activity (%)) was found to be 97 ± 4.9%; in series [5] (Homo sapiens, 190 μM, hTERT-BJ1, read-out: Relative SEAP activity (%)), 107 ± 6%. Also, the viability at 48 h, 1.9 µM in series [3] turned out to be 91 ± 10%; in series [4] (setting [7]) it was 111 ± 6.5%. Besides, the viability at 48 h, 19 µM in series [3] amounted to 57 ± 1.8%; in series [4] (setting [7]) it was 89 ± 14.3%. Also, the viability at 48 h, 190 µM in [3] amounted to 31 ± 1%; in [4] (setting [7]), 48 ± 9%.

In the case of `O=C1c2ccccc2C(=O)c2c(NC(=O)[C@@H]3C[C@H]3c3ccccc3)ccc(NC(=O)[C@@H]3C[C@H]3c3ccccc3)c21` (relative stereo) [VI27, 1,4-Bis(trans-2-phenyl-1-cyclopropaneamido)-9,10-anthracenedione], the melting point was 272 to 274 °C. In the series with rat glioma C6 cells, the IC50 is > 20 µM. The compound further showed an IC50 in series [6] of 19.5 µM. In series [2] (1.8 μM, PhTERT-SEAP(hTERT-H1299)), this compound registered an SEAP/vibility of 0.94. This compound returned an SEAP/vibility in series [2] (18 μM, PhTERT-SEAP(hTERT-H1299)) of 0.93. In series [2] (189 μM, PhTERT-SEAP(hTERT-H1299)), this compound came in with an SEAP/vibility of 0.92. For the same compound, the activity at 1.8 µM in [2] (Homo sapiens, NCI-H1299, 1.8 μM, PhTERT-SEAP(hTERT-H1299), read-out: Relative SEAP activity (%)) amounted to 95 ± 7.7%. The activity at 18 µM in [2] (Homo sapiens, NCI-H1299, 18 μM, PhTERT-SEAP(hTERT-H1299), read-out: Relative SEAP activity (%)) was 93 ± 3.2%. Besides, the activity at 189 µM in [2] (Homo sapiens, NCI-H1299, 189 μM, PhTERT-SEAP(hTERT-H1299), read-out: Relative SEAP activity (%)) was found to be 87 ± 3.6%. In [3], the viability at 48 h, 1.8 µM turned out to be 101 ± 2.4%; the viability at 48 h, 18 µM came to 100 ± 4.7%; the viability at 48 h, 189 µM amounted to 94 ± 3.5%. For the same compound, in series [4] (setting [7]), the viability at 48 h, 1.8 µM turned out to be 92 ± 16.9%; the viability at 48 h, 18 µM is 97 ± 18.2%; the viability at 48 h, 189 µM is 104 ± 10.7%. This compound also had an SEAP/vibility in series [5] (1.8 μM, PhTERT-SEAP (hTERT-BJ1)) of 0.89. In addition, the SEAP/vibility in series [5] (18 μM, PhTERT-SEAP (hTERT-BJ1)) stood at 0.99. Moreover, in [5] (189 μM, PhTERT-SEAP (hTERT-BJ1)), the SEAP/vibility is 0.98. Besides, the activity at 1.8 µM in [5] (Homo sapiens, 1.8 μM, PhTERT-SEAP (hTERT-BJ1), read-out: Relative SEAP activity (%)) amounted to 92 ± 16.9%. In series [5] (Homo sapiens, 18 μM, PhTERT-SEAP (hTERT-BJ1), read-out: Relative SEAP activity (%)), the activity at 18 µM stood at 97 ± 18.2%. Besides, in series [5] (Homo sapiens, 189 μM, PhTERT-SEAP (hTERT-BJ1), read-out: Relative SEAP activity (%)), the activity at 189 µM is 102 ± 16.6%. Besides, in the series on human hepatoma G2 cells, the half-inhibitory concentration (IC50) was > 20 µM.

For the compound `O=C1c2cccc(SCCO)c2C(=O)c2cccc(SCCO)c21` [IIb, 1,5-Bis(hydroxyethylthio)-anthraquinone], the “LP (%) (10 mM)” value in series [1] was 16 ± 2.2%. Further, the IC50 was 21.5 ± 0.8 µM with rat glioma C6 cells and 36.4 ± 1.5 µM with human hepatoma G2 cells. In addition, the activity at 2.8 µM stood at 97 ± 15.7% in series [2] (Homo sapiens, NCI-H1299, 2.8 μM, H1299, read-out: Relative SEAP activity (%)) and 104 ± 15.7% in [5] (Homo sapiens, 2.8 μM, hTERT-BJ1, read-out: Relative SEAP activity (%)). Also, the activity at 28 µM in series [2] (Homo sapiens, NCI-H1299, 28 μM, H1299, read-out: Relative SEAP activity (%)) amounted to 76 ± 12.4%; in series [5] (Homo sapiens, 28 μM, hTERT-BJ1, read-out: Relative SEAP activity (%)), 98 ± 10.9%. Further, the activity at 280 µM in series [2] (Homo sapiens, NCI-H1299, 280 μM, H1299, read-out: Relative SEAP activity (%)) came to 45 ± 2.7%; in [5] (Homo sapiens, 280 μM, hTERT-BJ1, read-out: Relative SEAP activity (%)) it was 71 ± 5%. Also, the viability at 48 h, 2.8 µM in series [3] was 54 ± 4%; in series [4], 94 ± 9.3%. The values for the viability at 48 h, 28 µM in series [3] and in series [4] were 29 ± 7% and 49 ± 2.9%, respectively. Moreover, the viability at 48 h, 280 µM in series [3] is 36 ± 7.2%; in [4] it was 23 ± 2.9%.

In turn, `O=C1c2cccc(SCCC(O)O)c2C(=O)c2cccc(SCCC(O)O)c21` [IId, 1,5-Bis(dihydroxypropylthio)-anthraquinone] yielded a melting point of 238 to 239 °C.

`CCCCNc1cccc2c1C(=O)c1cccc(NCCCC)c1C2=O` [IVg, 1,5-Bis(butylamino)anthraquinone]: the melting point lay in the range of 152 to 153 °C.

Turning to `O=C1c2cccc(NC3CCCC3)c2C(=O)c2cccc(NC3CCCC3)c21` [IVi, 1,5-Bis(cyclopentylamino)anthraquinone], the melting point is 198 to 201 °C.

`NCCCCNc1cccc2c1C(=O)c1cccc(NCCCCN)c1C2=O` [IVl, 1,5-Bis(aminobutylamino)-anthraquinone] had a melting point of 208 to 210 °C.

On to `NCCCCCNc1cccc2c1C(=O)c1cccc(NCCCCCN)c1C2=O` [IVm, 1,5-Bis(aminopentylamino)-anthraquinone], for which the melting point fell in the range of 113 to 115 °C. This compound returned an IC50 in the series with rat glioma C6 cells of 8.36 µM. Besides, the IC50 in series [6] is > 20 µM. Also, in the series with human hepatoma G2 cells, inhibition was half-maximal at 17.4 ± 0.74 µM (IC50).

`CCCCCCNc1cccc2c1C(=O)c1cccc(NCCCCCC)c1C2=O` [IVn, 1,5-Bis(hexylamino)-anthraquinone]: the melting point is 142 to 144 °C.

As to `CC1CCCC(Nc2cccc3c2C(=O)c2cccc(NC4CCCC(C)C4C)c2C3=O)C1C` (centres unmarked) [IVp, 1,5-Bis(2,3-dimethylcyclohexylamino)-anthraquinone], the melting point was in the range of 188 to 190 °C.

In turn, `O=C1c2cccc(NCc3ccccc3)c2C(=O)c2cccc(NCc3ccccc3)c21` [IVr, 1,5-Bis(benzylamino)-anthraquinone] had a melting point of 218 to 220 °C. In addition, the IC50 in the series with rat glioma C6 cells was > 20 µM. Besides, the 50% inhibitory concentration (IC50) in series [6] is > 20 µM. For the same compound, the IC50 in the series on human hepatoma G2 cells was > 20 µM.

For the compound `O=C1c2c(O)ccc(O)c2C(=O)c2c(NCCNCCO)ccc(NCCNCCO)c21` [Mitoxantrone, reference compound], the “Inhibition of LP(10 mM)” value in [1] is on record as >100%. In series [1], the “LP (%) (10 mM)” value came to 54 ± 1.5%. In addition, the IC50 turned out to be 0.07 ± 0.01 µM in the series on rat glioma C6 cells, 0.4 µM in series [6] and 2 ± 0.5 µM in the series with human hepatoma G2 cells. In addition, the SEAP/vibility came to 0.82 in series [2] (1.9 μM, PhTERT-SEAP(hTERT-H1299)); 1.16 in [2] (19 μM, PhTERT-SEAP(hTERT-H1299)); 1.21 in series [2] (193 μM, PhTERT-SEAP(hTERT-H1299)). Moreover, the activity at 1.9 µM in series [2] (Homo sapiens, NCI-H1299, 1.9 μM, PhTERT-SEAP(hTERT-H1299), read-out: Relative SEAP activity (%)) was found to be 81 ± 3.8%; in series [5] (setting [8]) it was 30 ± 5.8%. Moreover, the activity at 19 µM was determined as 66 ± 4% in series [2] (Homo sapiens, NCI-H1299, 19 μM, PhTERT-SEAP(hTERT-H1299), read-out: Relative SEAP activity (%)) and 13 ± 9.2% in [5] (setting [8]). Besides, the activity at 193 µM in series [2] (Homo sapiens, NCI-H1299, 193 μM, PhTERT-SEAP(hTERT-H1299), read-out: Relative SEAP activity (%)) came to 47 ± 3.9%; in series [5] (Homo sapiens, 193 μM, hTERT-BJ1, read-out: Relative SEAP activity (%)), 4 ± 14.2%. Besides, the viability at 48 h, 1.9 µM in series [3] was found to be 100 ± 5.6%; in series [4], 75 ± 2.9%. For the same compound, the viability at 48 h, 19 µM in series [3] stood at 57 ± 4.3%; in series [4], 56 ± 3.1%. Moreover, the viability at 48 h, 193 µM came out at 39 ± 3.2% in [3] and 10 ± 2% in [4].

`CCC(=O)Nc1cccc2c1C(=O)c1cccc(NC(=O)CC)c1C2=O` [VIIb, 1,5-bis-(methylacetamido)-9,10-anthracenedione] gave a melting point of 321 °C.

In turn, `CC(Cl)C(=O)Nc1cccc2c1C(=O)c1cccc(NC(=O)C(C)Cl)c1C2=O` (centres unmarked) [VIId, 1,5-bis-(2-chloropropionamido)-9,10-anthracenedione] returned a melting point of 288 to 289 °C.

In turn, `NCCCCCNc1cccc2c1C(=O)c1c(NCCCCCN)cccc1C2=O` [Vm, 1,8-Bis(aminopentylamino)-anthraquinone] registered a melting point of 115 to 116 °C. Half-maximal inhibition in the series with rat glioma C6 cells (IC50) was put at 0.11 ± 0.01 µM. In [6], the IC50 turned out to be 1.29 µM. The compound further came in with an IC50 in the series on human hepatoma G2 cells of 0.09 µM.

The IC50 is the concentration that inhibits the measured activity by half. Usually viability stands for a read-out of living cells in per cent, often relative to untreated cells. In general, melting point refers to the temperature of the solid-liquid transition.
